Where two headings read alike, the source gives them in different places.
What was measured:
[1] = tested on: NCI H-929 Multiple Myeloma Cell Line; assay: NCI H-929 sub-cutaneous xenograft, varied BTZ dose, TGI and TTE (Example 8); assay type: in vivo, mouse; conditions: endpoint day 18
Description: Cilengitide or vehicle was supplied as daily intra-peritoneal injection (45 mg/kg). […] After this point, dosing was continued in groups receiving 0.2 mg/kg and 0.5 mg/kg BTZ±cilengitide until day 31 to allow comparative tumour growth delay (i.e. difference in time to endpoint (TTE). […] TTE was calculated as TTE=[log(endpoint volume)-b]/m where TTE is expressed in days, endpoint volume is expressed in mm^3, b is the intercept, and m is the slope of the line obtained by linear regression of a log-transformed tumour growth data set. TTE values were plotted in Kaplan-Meier diagrams (FIGS. 9 and 10).

[2] = tested on: NCI H-929 human multiple myeloma cells; assay: NCI-H929 sub-cutaneous xenograft mouse tumor model, 'high' bortezomib dose (Example 7); assay type: in vivo; conditions: for Complete response (mice) / No response (mice) / Partial response (mice) / Total RR % (PR+CR): bortezomib 1 mg/kg IV biweekly, cilengitide 45 mg/kg IP QD, N = 10 mice per group
Source text: This was then continued until Day 21.
Partial response (PR) is defined as the first measurement of the tumor volume being 50% or less of its Day 1 volume for three consecutive measurements during the course of the study, and equal to or greater than 13.5 mm^3 for one or more of these three measurements. In a complete response (CR), the tumor volume was less than 13.5 mm^3 for three consecutive measurements during the course of the study. Total response rate (RR) is the sum of PR+CR. Treatment began on day 1 and was stopped on Day 21.

[3] = tested on: WSU-DLCL2 lymphoma xenograft; conditions: at MTD; cited from earlier work
[4] = tested on: CWR22 human prostate cancer xenografts; conditions: cited from earlier work
[5] = target: 20S proteasome (Homo sapiens, UniProt P20618+P28074); conditions: cited from earlier work
[6] = tested on: chymotrypsin-like activity of the proteasome; conditions: highest dose used in the phase I trial; cited from earlier work
[7] = tested on: HEK293 cells; assay: Sulforhodamine B relative cell growth assay in HEK293 cells (Examples 1-3); assay type: cell-based; conditions: HEK293 (αvβ3 +ve); 10 μM proteasome inhibitor, absence of cRGDfK
Description: Established methodology was used to prepare 80-100% confluent monolayers of HEK293 cells in T75 flasks. Cells were cultured in DMEM (Lonza) supplemented with 10% FBS (Gibco), 2 mM L-glutamine, 100 U/mL penicillin and 100 μg/mL streptomycin (“complete DMEM”).
The cells in T75 flasks were trypsinised and resuspended in complete DMEM. The cells were counted using a Neubauer chamber and seeded at approximate density of 3×10^4 cells/cm^2 and 7500 cells/cm^2 in 96 well flat bottomed tissue culture plates (Corning) 0.1 mL cell suspension per well. Cells were incubated for 24 hours at 37° C./5% CO2 (humidified).
To provide a working stock, BTZ was diluted to 10 mM in DMSO. […]
Briefly: medium was removed from wells and replaced with an equal volume of PBS. […] Optical density (OD570nm) was determined using an ELISA plate reader (Dynex MRX, Dynex Technologies).
In total, 5 replicates of the experiment were carried out. Cells treated with peptide/BTZ mixtures or control mixtures were incubated for 24 hours at 37° C./5% CO2 (humidified) then analysed by sulforhodamine B assay.
The average of the background measurements (i.e. no cells, medium only) was subtracted from each reading. ‘Ti’ is OD570nm following 24 hours treatment with drugs. […]
Using these equations, control cell growth is assigned a relative cell growth value of 100% and all cell growth values are calculated relative to this figure. […]

[8] = tested on: Cos7 cells; assay: Sulforhodamine B relative cell growth assay in Cos7 cells (Example 2); assay type: cell-based; conditions: COS-7 (αvβ3 −ve); 10 μM proteasome inhibitor, absence of cRGDfK
[9] = phase II trials; heavily pretreated patient population; cited from earlier work
[10] = tested on: T47D breast cancer cell line; assay: Sulforhodamine B viability, isobologram and combination index in T47D cells (Examples 4-5); assay type: cell-based; conditions: single agent at its IC50
Description: For assessment of combined BTZ and cilengitide toxicity, T47D cells were seeded at a density of 7500 cells/cm^2 in 96-well cell culture plates and incubated for 24 hours. Cilengitide was diluted to 20 μM in complete DMEM, then 3 serial tenfold dilutions of this were performed in complete DMEM (2 μM, 200 nM and 20 nM). Complete DMEM containing no cilengitide was provided for negative controls.
These dilutions (or DMSO for wells containing no BTZ) were added to aliquots of complete DMEM containing 0-20 μM cilengitide for a 1/150 dilution. Aliquots (0.1 mL) of each mixture were added to wells already containing 0.1 mL medium (in duplicate), resulting in a matrix of cilengitide (10 nM-10 μM) and/or BTZ (1 nM-10 μM) or neither agent (diluent only).
OD570nm readings were divided by those resulting from negative control (diluent only) wells and expressed as a percentage. Three independent replicates of this experiment were carried out.
The isoboles were obtained similarly by extrapolation of points representing 50% reduction in viability from line graphs of % viability versus concentration of one agent at variable concentration with the other agent supplied at a fixed concentration. […]

[11] = tested on: PHTX22L xenografts; conditions: MTD level treatment; cited from earlier work
[12] = tested on: Oci-Ly7-Luc; conditions: disseminated lymphoma; cited from earlier work
[13] = tested on: DP54-Luc model; conditions: in vivo; cited from earlier work
[14] = target: chymotrypsin-like sites (Homo sapiens, UniProt P28074); conditions: cited from earlier work
[15] = at maximum tolerated dose (MTD)

Chain of chymotrypsin-like sites (P28074 60-263): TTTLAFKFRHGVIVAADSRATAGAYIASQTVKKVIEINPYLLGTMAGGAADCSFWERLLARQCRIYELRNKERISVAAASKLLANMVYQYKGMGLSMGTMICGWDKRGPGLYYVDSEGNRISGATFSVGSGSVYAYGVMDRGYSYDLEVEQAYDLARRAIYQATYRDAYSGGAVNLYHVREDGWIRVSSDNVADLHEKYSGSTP

## CC(C)C[C@H](NC(=O)[C@H](Cc1ccccc1)NC(=O)c1cnccn1)B(O)O [Bortezomib]
[1]; 0.5 mg/kg BTZ and below, without cilengitide
  Tumour growth inhibition (TGI): virtually ineffective
[1]; BTZ doses of 0.7 mg/kg and greater, biweekly i.v.
  Tumour growth inhibition (TGI): almost complete TGI
[2]; By Day 42, of 10 animals per group
  animals that relapsed (complete relapse): 3
[3]
  anti-tumoral activity: ineffective
[4]; [15]
  anti-tumoral activity: effective anti-tumoral activity
[5]
  proteasome dissociation half-life: approximately 110 minutes

## CC(C)C[C@H](NC(=O)[C@H](CCc1ccccc1)NC(=O)CN1CCOCC1)C(=O)N[C@@H](Cc1ccccc1)C(=O)N[C@@H](CC(C)C)C(=O)[C@@]1(C)CO1 [Carfilzomib]
[6]
  inhibition of the chymotrypsin-like activity of the proteasome in blood of patients: 88%
[7]
  cell growth relative to untreated control cells: greater activity than ixazomib, delanzomib and oprozomib
[8]
  cell growth relative to untreated control cells: greater activity than ixazomib, delanzomib and oprozomib
[9]
  partial response rate: 24%

## CC(C)[C@H]1C(=O)N[C@@H](CCCN=C(N)N)C(=O)NCC(=O)N[C@@H](CC(=O)O)C(=O)N[C@H](Cc2ccccc2)C(=O)N1C [Cilengitide]
[2]; Day 1
  Complete response (mice): 0
  No response (mice): 10
  Partial response (mice): 0
  Total RR % (PR+CR): 0%
[2]; Day 4
  Complete response (mice): 0
  No response (mice): 10
  Partial response (mice): 0
  Total RR % (PR+CR): 0%
[2]; Day 8
  Complete response (mice): 0
  No response (mice): 10
  Partial response (mice): 0
  Total RR % (PR+CR): 0%
[2]; Day 12
  Complete response (mice): 0
  No response (mice): 10
  Partial response (mice): 0
  Total RR % (PR+CR): 0%
[2]; Day 15
  Complete response (mice): 0
  No response (mice): 10
  Partial response (mice): 0
  Total RR % (PR+CR): 0%
[2]; Day 18
  Complete response (mice): 0
  No response (mice): 10
  Partial response (mice): 0
  Total RR % (PR+CR): 0%
[2]; Day 21
  Complete response (mice): 0
  No response (mice): 10
  Partial response (mice): 0
  Total RR % (PR+CR): 0%
[10]
  CI (combination index): 1.00

## CC(C)C[C@H](NC(=O)CNC(=O)c1cc(Cl)ccc1Cl)B(O)O [Ixazomib, [(1R)-1-[[2-[(2,5-dichlorobenzoyl)amino]acetyl]amino]-3-methyl-butyl]boronic acid]
[11]
  anti-tumoral effect: only ixazomib was found to exhibit an anti-tumoral effect
[3]
  anti-tumoral activity: significant anti-tumoral activity
[4]; at half the MTD
  anti-tumoral activity: more effective than bortezomib
[4]; [15]
  anti-tumoral activity: effective anti-tumoral activity
[12]
  antitumoral effect: improved antitumoral effect compared with bortezomib
[5]
  proteasome dissociation half-life: approximately 18 minutes
[5]; faster than bortezomib
  release from the proteasome relative to bortezomib: approximately 6 fold
[13]
  alleviation of osteolytic bone disease: effective in the alleviation of osteolytic bone disease

## C[C@@]12OC(=O)[C@]1([C@@H](O)[C@@H]1C=CCCC1)NC(=O)[C@@H]2CCCl [Marizomib]
[14]
  inhibition of the chymotrypsin-like sites: up to 100%

From patent publication US10328116B2, “Combinations of proteasome inhibitors and cyclic peptides” (BIG DNA LTD, priority 2014, dated 2019)
